Experimental data: US20050130961A1, “Muscarinic M1 receptor agonists for pain management” (priority 2003, published 2005)

Assays:
M(1) muscarinic receptor = molecular target: T1, M(1) muscarinic receptor (Homo sapiens, UniProt P11229); assay: R-SAT functional receptor assay, M(1); format: cell-based; settings: R-SAT
T1 construct: expressed in transfected cells
T1 sequence (P11229 1-460): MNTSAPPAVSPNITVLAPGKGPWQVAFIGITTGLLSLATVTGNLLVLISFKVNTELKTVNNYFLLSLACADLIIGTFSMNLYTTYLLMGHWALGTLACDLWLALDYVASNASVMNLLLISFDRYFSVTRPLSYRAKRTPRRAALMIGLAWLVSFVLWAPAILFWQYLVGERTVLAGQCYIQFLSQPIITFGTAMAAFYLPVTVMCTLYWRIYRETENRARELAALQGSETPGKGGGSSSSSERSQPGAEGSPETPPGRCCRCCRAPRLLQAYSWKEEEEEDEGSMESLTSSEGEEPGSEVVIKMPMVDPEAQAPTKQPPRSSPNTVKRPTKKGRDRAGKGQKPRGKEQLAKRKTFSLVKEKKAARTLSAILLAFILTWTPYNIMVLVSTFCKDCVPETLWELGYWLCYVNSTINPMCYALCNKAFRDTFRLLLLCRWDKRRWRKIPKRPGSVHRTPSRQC
Description: (§1) The functional receptor assay, Receptor Selection and Amplification Technology (R-SAT), essentially as disclosed in U.S. Pat. Nos. 5,707,798, 5,912,132, and 5,955,281, which are all hereby incorporated by reference in their entirety, was used to investigate the pharmacological properties of known and novel muscarinic agonists.

M(2) muscarinic receptor = molecular target: T2, M(2) muscarinic receptor (Homo sapiens, UniProt P08172); assay: R-SAT functional receptor assay, M(2); format: cell-based; settings: R-SAT
T2 construct: expressed in transfected cells
T2 sequence (P08172 1-466): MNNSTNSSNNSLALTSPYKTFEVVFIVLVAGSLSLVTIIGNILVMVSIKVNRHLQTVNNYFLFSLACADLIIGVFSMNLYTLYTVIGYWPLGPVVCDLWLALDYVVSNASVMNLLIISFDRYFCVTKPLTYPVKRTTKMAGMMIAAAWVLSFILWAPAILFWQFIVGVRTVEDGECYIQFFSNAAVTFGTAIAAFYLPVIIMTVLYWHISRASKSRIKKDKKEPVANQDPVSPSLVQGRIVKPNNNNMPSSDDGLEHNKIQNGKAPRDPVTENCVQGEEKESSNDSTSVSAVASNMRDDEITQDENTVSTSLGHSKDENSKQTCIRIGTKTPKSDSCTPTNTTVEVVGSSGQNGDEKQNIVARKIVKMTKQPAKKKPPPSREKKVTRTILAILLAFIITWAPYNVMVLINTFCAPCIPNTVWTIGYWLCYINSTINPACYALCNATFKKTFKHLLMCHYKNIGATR
Description: as §1

thermal hyperalgesia = assay: CCI/Thermal Hyperalgesia (paw withdrawal latency to radiant heat); format: in vivo; settings: CCI rats
Method: (§2) Rats were anesthetized under aseptic and heated conditions using a combination of 1.6 ml ketamine (100 mg/ml) and 1.6 ml xylazine (100 mg/ml) in 6.8 ml 0.9% saline at a volume of 0.1 ml/100 g. The left quadriceps was shaved and scrubbed thoroughly with an iodine solution. The sciatic nerve was exposed at the level of the sciatic notch distally to the sciatic trifurcation. The nerve was very carefully freed from the underlying muscle and connective tissue without causing trauma to the nerve itself. Using 4-0 chromic catgut suture material, four semi-loose ligatures were tied around the sciatic nerve starting at the most proximal level, next to the sciatic notch, spaced roughly 1 mm apart and ending proximal to the sciatic trifurcation. […] The muscular incision was closed with 4-0 silk suture material and the skin was stapled with wound clips. The animals were closely observed until they recovered completely from the anesthetic. The surgery was the same for the hyperalgesia and allodynia experiments.
For hyperalgesia testing, rats were placed in a tinted plastic box on top of a clear glass, temperature-regulated floor maintained at 31±1° C. The floor contained a focal radiant heat source (halogen projection lamp CXL/CXP, 50 W, 8 v, USHIO, Tokyo).
To initiate the test, rats were placed in the tinted boxes and allowed 10-20 minutes to acclimate to the new environment. The radiant heat source was then positioned under the plantar surface of the hind paw. Upon activation of the heat source, a timer was simultaneously triggered. Upon reflex movement of the hind paw, a motion sensor was activated stopping the timer and inactivating the heat source. The thermal source was adjusted so that the average response latency for an uninjured animal was no greater than 20 seconds. Each rat had two days of pre-operative baseline latency measurements in which the left rear hind paw plantar surface was measured three to four times. Two to three left postoperative baseline latency measurements were taken before and after the treatment was given. Postoperative day 2 and 4 measurements yielded the greatest degree of hyperalgesia and thus were utilized in this assay. Each animal was tested twice with at least 48 hours separating each test.
Thermal hyperalgesia developed in the surgical-treated left paw as evidenced by a decrease in paw withdrawal latencies to a thermal stimulus. The maximal hyperalgesia occurred on post-operative days 2 through 4. Paw withdrawal latencies on the surgically-treated left side gradually returned to baseline levels over the course of 5 to 12 days post-surgery.

tactile allodynia [1] = assay: CCI/Tactile Allodynia (von Frey hairs); format: in vivo; settings: CCI rats
Method: as §2
The onset and duration of significant mechanical allodynia post CCI surgery is approximately 10-14 days and lasts for roughly two months. Within this allodynic time frame, and for each specific allodynia experiment, pre and post drug administration measurements were taken with seven von Frey hairs which are designated by log (10* force required to bend hair, mg) and ranged from 2-26 grams (#'s 4.31-5.46). Each hair was pressed perpendicularly against the left injured plantar mid-hind paw surface with sufficient force to cause a slight bending, and was held for 6-8 seconds starting with the thinnest gauged hair and working up to the thickest. A positive response was recorded when the injured paw was sharply withdrawn, and this response was confirmed as positive by testing the next thickest gauged hair for the same response. Only when a response was seen twice was the score accepted. If the maximum gram force of 26 was reached without a response, this was considered the peak threshold cutoff for allodynic behavior and the score was recorded. Animals were considered allodynic when the post surgery baseline measurements were 6 grams and below. Two baseline days of measurements were taken with one round of testing occurring per day. On the day of drug testing, one round of baseline measurements were taken, the appropriate pretreatment was administered i.p. and a second round of measurements were recorded. Each animal was utilized in multiple experiments, with one treatment per experiment, and an appropriate washout period in between experiments.

acute thermal pain = assay: Acute Thermal Analgesia (tail withdrawal from 55° C. water); format: in vivo; settings: rats; 55° C. water
Method: Water was heated and maintained at 55° C.±1° C. with a probe regulated hot plate. Female rats weighing approximately 200 g -250 g were acclimated days in advance by placing them into and removing them from a plastic rat restrainer. On the day of the experiment each rat was placed in the restrainer 1 minute before the test was performed. Roughly one inch of the tail was submerged into the water as a timer was initiated. Once the tail was completely removed from the water, the timer was stopped and the time was recorded. […] One round of baseline measurements were collected. The test compound was administered and after the appropriate pretreatment interval, the procedure was repeated. Each animal was utilized in multiple experiments, with one treatment per experiment, and an appropriate washout period of at least 48 hours between experiments. The pre-treatment baseline tail withdrawal latency average was 2.281 s±0.25. […] At a dose of 10 mg/kg, morphine [F(3,23)=5.903, p<0.01] was antinociceptive.

tactile allodynia [2] = assay: Partial Sciatic Ligation (PSL) Surgery/Tactile Allodynia; format: in vivo, mice

SMILES: CCCCC1CCN(CCCN2C(=O)COc3cc(F)ccc32)CC1 [Formula (IX)]
- agonist character at M(1) receptor, in words (M(1) muscarinic receptor): potent and efficacious M(1) agonist
- EC50 (M(1) muscarinic receptor; read-out: M1 pEC50 (converted)): 31.6 nM
- Emax (M(1) muscarinic receptor; relative to carbachol, read-out: M1 % efficacy): 79%
- agonist character at M(2) receptor, in words (M(2) muscarinic receptor): weak partial agonists
- EC50 (M(2) muscarinic receptor; read-out: M2 pEC50 (converted)): 501 nM
- Emax (M(2) muscarinic receptor; relative to carbachol, read-out: M2 % efficacy): 48%
- Antihyperalgesic, minimal effective dose (thermal hyperalgesia): 10.0 mg/kg
- dose that significantly reversed thermal hyperalgesia (thermal hyperalgesia; post-hoc comparison relative to vehicle): 10 mg/kg
- Antiallodynic, minimal effective dose (tactile allodynia [1]): 17.8 mg/kg
- dose that reversed tactile allodynia (tactile allodynia [1]; i.p., post-hoc comparison): 17.8 mg/kg
- alleviating acute thermal pain, in words (acute thermal pain): not active
- effect on tactile allodynia after PSL, in words (tactile allodynia [2]; M(1) receptor knockout (KO) mice, 30 mg/kg): completely abolished
- effect on tactile allodynia after PSL, in words (tactile allodynia [2]; mice, intracerebroventricular (i.c.v.) administration): significantly reversed tactile allodynia
- effect on tactile allodynia after PSL, in words (tactile allodynia [2]; wild type (WT) mice, 30 mg/kg): significantly alleviated the tactile allodynia
